Source: US20230255962A1, “COMBINATION OF A BTK INHIBITOR AND AN INHIBITOR OF CDK9 TO TREAT CANCER” (ASTRAZENECA AB, priority 2017, published 2023)

Legend:
OCILy10 [1] = assay: TMRE/DAPI flow cytometry, percentage of apoptotic or dead cells; assay type: cell-based
Description: (§1) Two BTK inhibitor-sensitive ABC-DLBCL cell lines (OCILy10 and TMD8) and one insensitive GCB-DLBCL cell line (Karpas422) were treated with either vehicle (DMSO), 100 nM acalabrutinib, or 100 nM AZD4573 for varying lengths of time as either single agent or in combination. Since exposure of BTKi-sensitive cell lines to acalabrutinib for 24 hours was sufficient to induce maximal BH3-only protein levels relative to vehicle-treated cells (FIG. 1), 24-hour pre-treatment of acalabrutinib was chosen for one of the combination sequences. Therefore, cells were treated with: 32 hours of acalabrutinib alone; 8 hours of AZD4573 alone; 8 hours of AZD4573 and acalabrutinib dosed concurrently; or 32 hours of acalabrutinib with AZD4573 added sequentially for the final 8 of those 32 hours (in other words, 24 hours of acalabrutinib pre-treatment).
(§2) The percentage of apoptotic or dead cells was determined by staining the samples with both tetramethylrhodamine, ethyl ester (TMRE) and 4′,6-diamidino-2-phenylindole (DAPI) and then subjecting them to flow cytometry using a BD LSR Fortessa. TMRE is a positively charged dye that accumulates in active mitochondria, and cells undergoing apoptosis experience mitochondrial outter membrane permeabilization (MOMP), which then fails to retain TMRE. […] Following appropriate treatments, cells were stained directly with 200 nM TMRE, incubated for 30 minutes at 37° C., resuspended in flow buffer containing DAPI, and subjected to flow cytometry. Flowjo was used to establish appropriate gates according to viability (DAPI) and MOMP (TMRE), and viable cells were defined as those with low DAPI and high TMRE staining.

OCILy10 tumor cells = assay: Subcutaneous tumor model, tumor volume; assay type: in vivo, C.B.-17 SCID female mice; conditions: OCILy10, following 3 cycles of dosing; AZD4573 ip BID 2 on/5 off, ibrutinib 12 mg/kg po QD
Description: AZD4573 was formulated in dimethylacetamide (DMA)/polyethylene glycol 400 (PEG 400)/1% w/v Tween 80 solution 2/30/68 and dosed at 5 mL/kg, intraperitoneally (ip), BID with a 2 hour split on days 1 and 2 followed by a 5 day dose holiday; i.e., a 2 on/5 off schedule. […]
5×10^6 OCILy10 tumor cells or 10×10^6 TMD8 tumor cells were injected subcutaneously in the right flank of C.B.-17 SCID female mice in a volume of 0.1 mL containing 50% matrigel. 10×10^6 Karpas-422 tumor cells were injected subcutaneously in the right flank of SCID beige female mice in a volume of 0.1 mL containing 50% matrigel. Tumor volumes (measured by caliper), animal body weight, and tumor condition were recorded twice weekly for the duration of the studies. The tumor volume was calculated using the formula: length (mm)×width (mm)^2×0.52. For efficacy studies, growth inhibition from the start of treatment was assessed by comparison of the differences in tumor volume between control and treated groups. […]
AZD4573 was formulated in dimethylacetamide (DMA)/polyethylene glycol 400 (PEG 400)/1% w/v Tween 80 solution 2/30/68 and dosed at 5 mL/kg, intraperitoneally (ip), bi-daily (BID) with a 2 hour split on days 1 and 2 with a 5 day dose holiday. […] Tumor volumes (measured by caliper), animal body weight, and tumor condition were recorded twice weekly for the duration of the studies. […]

TMD8 [2] = assay: Western blot time course, cleaved caspase-3 (induction of apoptosis); assay type: cell-based; conditions: TMD8, 100 nM AZD4573 8-hour time course, alone or following 24-hour pre-treatment with 100 nM acalabrutinib
Description: (§3) Two BTK inhibitor-sensitive ABC-DLBCL cell lines (OCILy10 and TMD8) and one insensitive GCB-DLBCL cell line (Karpas422) were treated for an 8-hour time course with either 100 nM AZD4573 alone or following a 24-hour pre-treatment with 100 nM acalabrutinib (since exposure to acalabrutinib for 24 hours was sufficient to induce maximal BH3-only protein levels). Cells were harvested for protein lysates at varying time points (0, 0.5, 1, 2, 4, and 8 hours) post-AZD4573 treatment, normalized for protein concentration using the BCA Protein Assay Kit, and run for western blots according to standard protocols. To ensure expected target engagement was achieved, the blots were probed for the proximal and distal biomarkers for CDK9 (pSer2-RNAPolII and Mcl-1, respectively) and the biomarker for activated BTK (pBTK). To gauge the time to induction of apoptosis, cleaved caspase-3 was also assessed. A loading control (vinculin) was also utilized for normalization.

OCILy10 [3] = assay: as above; assay type: cell-based; conditions: OCILy10, 100 nM AZD4573 8-hour time course, alone or following 24-hour pre-treatment with 100 nM acalabrutinib
Description: as §3
The BTK inhibitor-sensitive ABC-DLBCL cell line OCILy10 was treated in vitro for an 8-hour time course with either 100 nM AZD4573 alone or following a 24-hour pre-treatment with 30 nM ibrutinib since, similar to acalabrutinib, exposure for 24 hours was sufficient to induce maximal BH3-only protein levels (data not shown). […] To gauge the time to induction of apoptosis, cleaved caspase-3 was also assessed. […]

Karpas422 [4] = assay: TMRE/DAPI flow cytometry, percentage of apoptotic or dead cells; assay type: cell-based; conditions: Karpas-422, 100 nM acalabrutinib alone or in combination with 100 nM AZD4573
Description: as §1, §2

OCILy10 [5] = assay: Western blot of Bcl2 family / BH3-only protein levels; assay type: cell-based
Description: (§4) OCILy10, TMD8, and Karpas422 were treated with either vehicle or 100 nM acalabrutinib for 2 to 72 hours. Protein lysates were harvested at multiple time points in that interval, protein concentration was determined using the BCA Protein Assay Kit, and Western blots were performed according to standard protocol to assess the effects on Bcl2 family protein levels. Each sample was normalized to vinculin as a loading control, and then protein levels of acalabrutinib-treated samples were calculated relative to those of vehicle-treated samples.
The BTK inhibitor-sensitive ABC-DLBCL cell line OCILy10 was treated in vitro for an 8-hour time course with either 100 nM AZD4573 alone or following a 24-hour pre-treatment with 30 nM ibrutinib since, similar to acalabrutinib, exposure for 24 hours was sufficient to induce maximal BH3-only protein levels (data not shown). Cells were harvested for protein lysates at varying time points (0, 0.5, 1, 2, 4, and 8 hours) post-AZD4573 treatment, normalized for protein concentration using the BCA Protein Assay Kit, and run for Western blots according to standard protocols. To ensure expected target engagement was achieved, the blots were probed for the proximal and distal biomarkers for CDK9 (pSer2-RNAPolII and Mcl-1, respectively) and the biomarker for activated BTK (pBTK). […] To gauge the time to induction of apoptosis, cleaved caspase-3 was also assessed. […]

TMD8 [6] = assay: CellTiter-Glo viability readout, 72 hours, GI50; assay type: cell-based; conditions: TMD8, 10-point dose-response
Description: (§5) Two ABC-DLBCL (OCILy10 and TMD8) cell lines and one GCB-DLBCL (Karpas422) cell line were treated with either vehicle (DMSO) or a 10-point, ½ log serially dilution of acalabrutinib for 72 hours with a CellTiter-Glo viability readout. The concentration at which 50% growth is inhibited (GI50) was calculated using GraphPad Prism or GeneData.

OCILy10 [7] = assay: CellTiter-Glo viability readout, 72 hours, GI50; assay type: cell-based; conditions: OCILy10, 10-point dose-response
Description: as §5

TMD8 [8] = assay: Western blot of Bcl2 family / BH3-only protein levels; assay type: cell-based
Description: as §4

Karpas422 [9] = assay: as above; assay type: cell-based; conditions: Karpas422, 100 nM acalabrutinib
Description: as §4

Compound | cell death (OCILy10 [1]; OCI-LY-10, 8 hours of 100 nM AZD4573 alone) [%] | complete response, % of treated animals (OCILy10 tumor cells) [%] | induction of cleaved caspase (TMD8 [2]) | induction of cleaved caspase (OCILy10 [3]) | cell death (OCILy10 [1]; OCI-LY-10, 32 hours of 100 nM acalabrutinib alone) [%] | effect on apoptotic/dead cells (Karpas422 [4]) | time to maximal BH3-only protein levels following dosing (OCILy10 [5]; BTK inhibitor-sensitive cells (OCILy10), 100 nM) [h] | levels of pro-apoptotic BH3-only proteins Bim and Bmf (OCILy10 [5]; OCILy10, 100 nM acalabrutinib, 24 hours, relative to the insensitive cell line) | sensitivity to BTK inhibition (dose-response) (TMD8 [6]) | sensitivity to BTK inhibition (dose-response) (OCILy10 [7]) | time to maximal BH3-only protein levels following dosing (TMD8 [8]; BTK inhibitor-sensitive cells (TMD8), 100 nM) [h] | levels of pro-apoptotic BH3-only proteins Bim and Bmf (TMD8 [8]; TMD8, 100 nM acalabrutinib, 24 hours, relative to the insensitive cell line) | BH3-only protein levels (Karpas422 [9])
CC(=O)N[C@@H]1CCC[C@H](C(=O)Nc2cc(-c3cnn4c3CC(C)(C)C4)c(Cl)cn2)C1 [AZD4573, (1S,3R)-3-acetamido-N-(5-chloro-4-(5,5-dimethyl-5,6-dihydro-4H-pyrrolo[1,2-b]pyrazol-3-yl)pyridin-2-yl)cyclohexanecarboxamide] | ~40 | 100 | mild caspase activation by 8 hours | mild caspase activation by 8 hours | – | – | – | – | – | – | – | – | –
CC#CC(=O)N1CCC[C@H]1c1nc(-c2ccc(C(=O)Nc3ccccn3)cc2)c2c(N)nccn12 [acalabrutinib, (S)-4-(8-amino-3-(1-but-2-ynoylpyrrolidin-2-yl)imidazo[1,5-a]pyrazin-1-yl)-N-(pyridin-2-yl)benzamide] | – | – | – | – | ~20 | minimal effect | ≤ 24 | increased | sensitive | sensitive | ≤ 24 | increased | did not increase
